Test results published in patent US10287265B2, “Enantiomers of 8-hydroxyquinoline derivatives and the synthesis thereof” (AVIDIN Co. Ltd., priority 2015, dated 2019).

How the values were obtained:
erythropoietin protein = assay: Erythropoietin protein expression in hippocampus and cortex of aged animals, chronic treatment, ELISA; format: in vivo, mouse; settings: 18-month-old C57BL/6 female mice, 20 mg/l in drinking water for four months
Method: Twenty-four 18-month-old female C57BL/6 mice (Innovo Ltd., Budapest, Hungary) were treated according to the experimental setup described in Example 34. in two groups: Group 1—control group given normal drinking water, Group 2—treated with the R-enantiomer according to Example 2, administered in drinking water (20 mg/l) for four months. Brain preparation was carried out under conditions described in Example 34. Brain samples were washed with 1×PBS to remove blood, then tissues were homogenized in 1×PBS and for 3 days, they were held at −20° C. overnight and 25° C. at daytime every day. After the third round of thawing, samples were centrifuged (5 min, 5000 rpm) and the supernatant was collected for further protein expression studies. Determination of erythropoietin levels of samples was done with Quantikine® ELISA Mouse Erythropoetin (R&D Systems, cat. no.: MEPOOB) according to the manufacturer's protocol. At the end of the test, the developed colour was measured with a THERMO-LABSYSTEMS Multiskan FC Absorbance Plate Reader at 450 nm. Results obtained through ELISA and measured at 450 nm were compared to standard dilution series of purified mouse EPO. Values (pg/ml) obtained based on the dilution series were compared to actual protein content of tissues. Protein content of tissue homogenates was measured with Nanodrop-1000 adjusted for BSA protein, at 280 nm.

Human 5-lipoxygenase = biological target: T1, Human 5-lipoxygenase (Homo sapiens, UniProt P09917); assay: 5-lipoxygenase enzyme activity, fluorescence measurement; format: biochemical
T1 construct: host or cells: Sf9 cells
T1 sequence (P09917 1-674): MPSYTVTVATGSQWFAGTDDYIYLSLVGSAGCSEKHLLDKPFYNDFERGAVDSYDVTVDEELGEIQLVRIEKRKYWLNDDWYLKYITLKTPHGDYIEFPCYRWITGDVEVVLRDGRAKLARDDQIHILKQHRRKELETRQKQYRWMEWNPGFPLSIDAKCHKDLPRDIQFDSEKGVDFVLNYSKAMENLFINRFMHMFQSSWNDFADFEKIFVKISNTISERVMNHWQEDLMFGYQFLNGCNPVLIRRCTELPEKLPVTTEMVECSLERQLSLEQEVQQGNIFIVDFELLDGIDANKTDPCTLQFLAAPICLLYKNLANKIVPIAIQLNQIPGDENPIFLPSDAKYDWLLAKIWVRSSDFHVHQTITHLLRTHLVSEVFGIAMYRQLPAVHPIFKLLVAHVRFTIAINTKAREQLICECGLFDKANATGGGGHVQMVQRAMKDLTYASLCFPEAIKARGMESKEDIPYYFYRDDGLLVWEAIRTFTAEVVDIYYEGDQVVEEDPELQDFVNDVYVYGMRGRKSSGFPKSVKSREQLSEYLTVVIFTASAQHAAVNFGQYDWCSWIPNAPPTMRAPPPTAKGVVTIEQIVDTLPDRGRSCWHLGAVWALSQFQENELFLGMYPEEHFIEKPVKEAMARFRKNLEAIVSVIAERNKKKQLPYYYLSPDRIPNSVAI
Method: Human 5-lipoxygenase produced by Sf9 cells was used throughout the experiments. The enzyme was pre-incubated with 10 μM compound according to Example 2 at room temperature, then—after the addition of 25 μM arachidonic acid substrate—the amount of generated rhodamine 123 was determined by fluorescence measurement. Percentage of inhibition rate was calculated by comparison to untreated control reactions.

Structure (SMILES): Cc1ccnc(N[C@H](c2ccc(C(F)(F)F)cc2)c2ccc3cccnc3c2O)n1 [Example 2, 7-[(R)-[(4-Methylpyrimidin-2-yl)amino][4-(trifluoromethyl)phenyl]methyl]quinolin-8-ol]
- EPO protein levels in hippocampal and cortical samples compared to untreated control mice (erythropoietin protein): induced increased EPO protein levels in both hippocampal and cortical samples
- inhibition of 5-lipoxygenase enzyme (concentration range in words) (Human 5-lipoxygenase): inhibits in micromolar concentration
- inhibition at 10 µM (Human 5-lipoxygenase; 10 μM concentration, 25 μM arachidonic acid substrate): 54%
